{"source": "paper PMC13234881", "about": "“Synthesis and Cytotoxicity of Complex Betulinic Acid Amides” (ACS Omega, 2026)", "key": {"breast carcinoma MCF7": {"test_system": "breast carcinoma MCF7", "assay": "Cytotoxicity screening test, MCF7", "type": "cell-based", "conditions": "Homo sapiens; MCF7 breast adenocarcinoma, 72 h; read-out: Cytotoxicity IC50 ± SD, MCF7", "from_the_text": "(§1) The screening cell lines, T-lymphoblastic leukemia CCRF-CEM, breast carcinoma MCF7, cervical carcinoma HeLa, and human foreskin fibroblasts BJ, were obtained from the American Type Culture Collection (Manassas, VA, USA). The procedure for cell culturing has already been described. ,"}, "cervical carcinoma HeLa": {"test_system": "cervical carcinoma HeLa", "assay": "Cytotoxicity screening test, HeLa", "type": "cell-based", "conditions": "Homo sapiens; HeLa cervical cancer, 72 h; read-out: Cytotoxicity IC50 ± SD, HeLa", "from_the_text": "as §1"}}, "data": [{"smiles": "COc1cccc2c1C(=O)c1c(O)c3c(c(O)c1C2=O)C[C@@](O)(C(=O)CO)C[C@@H]3O[C@H]1C[C@H](N)[C@H](O)[C@H](C)O1", "note": "[doxorubicin]", "values": [{"measurement": "IC50", "setting": "breast carcinoma MCF7", "result": "273 ± 19", "unit": "nM"}, {"measurement": "IC50", "setting": "cervical carcinoma HeLa", "result": "868 ± 54", "unit": "nM"}]}]}
